The values below come from article PMC6525029 (ACS synthetic biology, 2019).

One test has as its target αvβ3 integrin (Homo sapiens, UniProt P05106+P06756). Briefly: Fluorescence polarization. Format: binding. In general terms: In fluorescence polarisation assays a small probe gives low polarisation when free and higher when bound to something large.
Another test addresses T1, αvβ3 integrin, P06756.
T1 chain 1: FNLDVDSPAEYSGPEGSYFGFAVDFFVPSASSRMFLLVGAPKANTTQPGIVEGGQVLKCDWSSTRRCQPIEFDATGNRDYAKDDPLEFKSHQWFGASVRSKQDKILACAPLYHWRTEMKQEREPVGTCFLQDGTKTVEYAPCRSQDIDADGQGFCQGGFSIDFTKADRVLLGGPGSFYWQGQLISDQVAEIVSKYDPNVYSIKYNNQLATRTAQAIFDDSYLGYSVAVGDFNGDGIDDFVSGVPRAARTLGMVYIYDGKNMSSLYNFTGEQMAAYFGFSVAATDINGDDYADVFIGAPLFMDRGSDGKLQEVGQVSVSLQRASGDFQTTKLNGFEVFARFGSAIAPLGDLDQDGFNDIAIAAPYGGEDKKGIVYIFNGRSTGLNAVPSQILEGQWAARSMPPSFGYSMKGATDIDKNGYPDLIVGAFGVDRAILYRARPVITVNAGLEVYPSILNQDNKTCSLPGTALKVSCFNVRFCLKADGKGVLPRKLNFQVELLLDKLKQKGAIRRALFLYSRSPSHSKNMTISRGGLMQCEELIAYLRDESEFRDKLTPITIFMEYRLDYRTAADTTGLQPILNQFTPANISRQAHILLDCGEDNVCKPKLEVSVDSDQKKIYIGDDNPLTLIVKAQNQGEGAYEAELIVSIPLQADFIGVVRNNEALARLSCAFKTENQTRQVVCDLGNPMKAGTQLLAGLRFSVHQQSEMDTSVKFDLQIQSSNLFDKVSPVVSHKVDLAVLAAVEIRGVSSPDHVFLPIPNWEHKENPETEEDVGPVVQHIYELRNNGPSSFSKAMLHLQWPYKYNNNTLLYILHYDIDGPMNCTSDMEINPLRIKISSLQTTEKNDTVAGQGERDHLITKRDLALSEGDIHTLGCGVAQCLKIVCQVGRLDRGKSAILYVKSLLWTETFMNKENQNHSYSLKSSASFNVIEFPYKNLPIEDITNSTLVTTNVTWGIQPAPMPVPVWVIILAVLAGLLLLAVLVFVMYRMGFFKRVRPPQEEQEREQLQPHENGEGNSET
T1 chain 2: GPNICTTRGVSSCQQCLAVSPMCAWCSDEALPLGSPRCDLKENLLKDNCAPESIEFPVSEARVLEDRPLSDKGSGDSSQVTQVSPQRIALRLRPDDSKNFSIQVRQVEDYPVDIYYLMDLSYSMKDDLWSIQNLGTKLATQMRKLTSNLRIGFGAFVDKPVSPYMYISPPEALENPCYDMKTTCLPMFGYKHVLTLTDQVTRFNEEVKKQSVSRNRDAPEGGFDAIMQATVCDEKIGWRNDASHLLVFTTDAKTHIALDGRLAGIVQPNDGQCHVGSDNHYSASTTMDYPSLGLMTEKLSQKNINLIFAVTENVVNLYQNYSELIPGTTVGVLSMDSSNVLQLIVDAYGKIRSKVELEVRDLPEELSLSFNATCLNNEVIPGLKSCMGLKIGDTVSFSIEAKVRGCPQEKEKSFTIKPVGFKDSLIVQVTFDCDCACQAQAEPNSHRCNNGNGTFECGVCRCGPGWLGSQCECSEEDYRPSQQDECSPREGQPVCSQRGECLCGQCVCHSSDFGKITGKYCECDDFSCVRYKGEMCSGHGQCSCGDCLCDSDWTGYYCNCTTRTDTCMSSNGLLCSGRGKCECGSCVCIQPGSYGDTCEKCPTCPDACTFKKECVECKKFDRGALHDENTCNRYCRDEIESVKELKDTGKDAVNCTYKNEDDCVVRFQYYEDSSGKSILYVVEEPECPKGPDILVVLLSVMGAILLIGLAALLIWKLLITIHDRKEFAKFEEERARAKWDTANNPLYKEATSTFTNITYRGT
Briefly: fluorescence polarisation.

A value given as a limit tells only on which side of the number the result lay.

Broadly, the Ki is the equilibrium dissociation constant of an inhibitor or competing ligand from its target. Low values mean tighter binding, high ones weaker binding. Turning to `CSCC[C@H](NC(=O)[C@H]1CSC[C@H](NC(=O)[C@H](C)NC(=O)[C@H](C)N)C(=O)N[C@@H](Cc2c[nH]cn2)C(=O)N[C@@H](CCCNC(=N)N)C(=O)NCC(=O)N[C@@H](CC(=O)O)C(=O)N2CCC[C@H]2C(=O)N1)C(=O)N1CCC[C@H]1C(=O)N1CCC[C@H]1C(=O)N[C@@H]1CSC[C@@H](C(=O)O)NC(=O)[C@H](CCC(=O)O)NC(=O)CNC(=O)[C@H](CCC(=O)O)NC(=O)[C@H](Cc2c[nH]c3ccccc23)NC(=O)[C@H](Cc2ccc(O)cc2)NC1=O` [Pcn2.8(5RGD)], on αvβ3 integrin, the Ki was > 2000 nM. The “binding to the αvβ3 integrin (in words)” value at αvβ3 integrin (FP competition experiment, Figure 5 legend) is reported as “poor binding”.

B1: linear/unmodified Pcn2.8(16RGD) core peptide (peptide)
chain: CHNHAPSMPPSYWRGDC
modifications: not checked
In the test with αvβ3 integrin, P06756, B1 yielded a Ki of 18 nM.
